Each structure is given as a SMILES string.

The target of one experiment is ADC-33 (Acinetobacter baumannii, UniProt A7Y407). In words: Ki determination, competition assay with nitrocefin (NCF) as substrate. It is filed as biochemical. The conditions noted are these: for Ki: corrected for NCF affinity, 5 min pre-incubation, pH 7.4. The procedure:
(§1) The affinity of CR167 for the two different β-lactamases was measured in competition assays using nitrocefin (NCF) as the indicator substrate (Table 1).
(§2) The binding affinity of each of the compounds 6a–e with ADC-33 and with OXA-24/40 was determined after 5 min pre-incubation of boronic acid and the enzyme, using competition assays with nitrocefin (NCF) as the substrate. […] These compounds differ in three structural characteristics: stereochemistry, the presence of the m-carboxylate on the aromatic ring, and the small chain linked to the chiral center. […] Finally, the smaller the steric hindrance is at the R1 position, the higher the affinity is.
(§3) Ki values were determined by using nitrocefin as a reporter substrate and treating the compounds as competitive inhibitors. Steady-state kinetic parameters were determined by combining pure enzyme with nitrocefin in 50 mM NaH2PO4; 25 mM NaHCO3, pH 7.4 (for OXA-24/40); or 50 mM NaH2PO4, pH 7.4 (for ADC-33), at room temperature. Changes in absorbance were measured on a Cary 60 UV−Vis spectrophotometer (Agilent Technologies) and converted to velocity using the change-in-extinction coefficient specific to nitrocefin (ε = 17,400 M^−1·cm^−1 at 482 nm). Initial velocities were fit to the Michaelis–Menten equation, yielding kcat and Km values. Next, the enzyme was challenged with a constant concentration of nitrocefin and increasing amounts of inhibitor. IC50 values were used to calculate Ki values using the Cheng–Prusoff equation as previously described. Specifically, the measurements of the initial velocities were performed with the addition of 100 µM NCF after a 5 min pre-incubation of the enzyme (2 nM) with increasing concentration of the inhibitor [37]. To determine the average velocities (v0), data from three experiments were fit to Equation (1): (1) v0=vu −{vu[I]/IC 50+[I]} where vu represents the NCF uninhibited velocity and IC50 represents the inhibitor concentration that results in a 50% reduction in vu. The Ki value was corrected for the NCF affinity (Km values for both OXA-24/40 and ADC-33) with the Cheng–Prusoff equation (Equation (2)): (2) Ki=IC50/(1+[NCF]/KmNCF)

Another experiment addresses T1, OXA-24/40 (Acinetobacter baumannii, UniProt Q8RLA6).
T1 construct: made in house
Described as above. Format: biochemical. The procedure:
as §1, §2, §3

The target in a further experiment is ADC-7. Also noted: method as in PMID 29144724. The conditions noted are these: cited from earlier work.
The target in the next experiment is class C β-lactamase AmpC. The arrangement: method as in PMID 20945905, PMID 23043117. The note with it: AmpC from E. coli; cited from earlier work.
The subject of a further experiment is SHV-1. The note with it: cited from earlier work.
The next experiment has as its system KPC-2. The arrangement: method as in PMID 26729496. The note with it: cited from earlier work.
For experiment [1], the system named is E. coli DH10B pBCSK, blaADC-7. The arrangement: method as in PMID 29144724. The conditions noted are these: with CR167; cited from earlier work.

T1 sequence (Q8RLA6 22-275): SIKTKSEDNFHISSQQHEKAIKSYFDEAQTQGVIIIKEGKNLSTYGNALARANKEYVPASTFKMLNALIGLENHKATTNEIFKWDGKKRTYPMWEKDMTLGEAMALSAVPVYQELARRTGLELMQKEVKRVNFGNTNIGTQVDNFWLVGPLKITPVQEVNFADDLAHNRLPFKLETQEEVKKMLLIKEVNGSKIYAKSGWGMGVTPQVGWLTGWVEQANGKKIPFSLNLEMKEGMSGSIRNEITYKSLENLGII

Consider `C[C@@H](NS(=O)(=O)Cc1cccc(C(=O)O)c1)B(O)O` [6b], for which the Ki stood at 0.79 ± 0.2 µM on ADC-33 and 5.2 ± 0.5 µM at OXA-24/40. The “fold more potent than 6d, ADC-33” value at ADC-33 (ratio of Ki, 6b vs 6d) is listed as 28 fold. The “fold higher affinity than compound 6a for OXA-24/40” value on OXA-24/40 (ratio of Ki, 6b vs 6a) is on record as 120 fold. Further, on OXA-24/40 (ratio of Ki, 6b vs 6d), the “fold more potent than 6d, OXA-24/40” value worked out at 60 fold.

With `O=C(O)c1cccc(CS(=O)(=O)NCB(O)O)c1` [CR167], the Ki on ADC-33 is 0.057 ± 0.015 µM; on OXA-24/40, 4.4 ± 0.5 µM; at ADC-7, 0.16 µM; at class C β-lactamase AmpC, 0.0013 µM. Besides, the IC50 was 0.43 µM with SHV-1 and 0.2 µM with KPC-2. For the same compound, in experiment [1], the “MIC for CAZ with CR167” value is given as 1 mg/L.

The values are drawn from paper PMC10135033, “Sulfonamidoboronic Acids as “Cross-Class” Inhibitors of an Expanded-Spectrum Class C Cephalosporinase, ADC-33, and a Class D Carbapenemase, OXA-24/40: Strategic Compound Design to Combat Resistance in Acinetobacter baumannii” (Antibiotics, 2023).
